Assay results published in PMC9234962, “Optimization of Peptide Linker-Based Fluorescent Ligands for the Histamine H1 Receptor” (Journal of Medicinal Chemistry, 2022).
Square brackets hold non-standard residues; d marks the D form. Peptide text beside a SMILES is read from it. * marks the point of attachment. Propanoyl(3-Pip(4-O-2-BnPh)) = O=C(CCN1CCC(Oc2ccccc2Cc2ccccc2)CC1)*

Target: Nluc-H1R (Homo sapiens, UniProt P35367)
Assay: NanoBRET competition binding assay (displacement of 1) on Nluc-H1R expressing HEK293T cells
Details: displacement of 1 (25 nM, KD = 8 nM), whole HEK293T cells, Cheng–Prusoff; for pKi: mean ± SEM, three experiments

Chain of Nluc-H1R (P35367 whole entry): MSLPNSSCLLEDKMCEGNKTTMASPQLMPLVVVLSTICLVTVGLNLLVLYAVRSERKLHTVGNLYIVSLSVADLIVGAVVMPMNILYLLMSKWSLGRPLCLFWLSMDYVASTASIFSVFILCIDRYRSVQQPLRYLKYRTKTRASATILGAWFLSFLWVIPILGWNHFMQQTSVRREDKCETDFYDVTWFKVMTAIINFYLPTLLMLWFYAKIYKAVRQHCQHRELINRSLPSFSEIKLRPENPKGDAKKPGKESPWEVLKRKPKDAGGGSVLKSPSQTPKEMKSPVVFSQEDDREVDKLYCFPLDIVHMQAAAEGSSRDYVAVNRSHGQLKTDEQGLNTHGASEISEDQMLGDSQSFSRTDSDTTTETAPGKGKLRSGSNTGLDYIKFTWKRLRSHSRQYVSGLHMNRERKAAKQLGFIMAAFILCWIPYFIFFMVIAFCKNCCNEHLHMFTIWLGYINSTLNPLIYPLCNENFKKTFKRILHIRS

Ki [nM]	pKi	SMILES
912	6.04 ± 0.16	C[C@H](NC(=O)CCN1CCC(Oc2ccccc2Cc2ccccc2)CC1)C(=O)N[C@@H](C)C(=O)N[C@@H](C)C(=O)N[C@H](Cc1ccccc1)C(N)=O [Compound 8a, (S)-N-((R)-1-Amino-1-oxo-3-phenylpropan-2-yl)-2-((S)-2-((S)-2-(3-(4-(2-benzylphenoxy)piperidin-1-yl)-propana-mido)propanamido)propanamido)propanamide] ({Propanoyl(3-Pip(4-O-2-BnPh))}-AAA[dF]-NH2)
513	6.29 ± 0.21	C[C@H](NC(=O)CNC(=O)CCN1CCC(Oc2ccccc2Cc2ccccc2)CC1)C(=O)N[C@@H](C)C(=O)N[C@H](Cc1ccccc1)C(N)=O [Compound 8b, (S)-N-((R)-1-Amino-1-oxo-3-phenylpropan-2-yl)-2-((S)-2-(2-(3-(4-(2-benzylphenoxy)piperidin-1-yl)propanamido)acetamido)propanamido)propanamide] ({Propanoyl(3-Pip(4-O-2-BnPh))}-GAA[dF]-NH2)
158	6.80 ± 0.12	CC(C)[C@H](NC(=O)CCN1CCC(Oc2ccccc2Cc2ccccc2)CC1)C(=O)N[C@@H](C)C(=O)N[C@@H](C)C(=O)N[C@H](Cc1ccccc1)C(N)=O [Compound 8c, (S)-N-((S)-1-(((S)-1-(((R)-1-Amino-1-oxo-3-phenylpropan-2-yl)amino)-1-oxopropan-2-yl)amino)-1-oxopropan-2-yl)-2-(3-(4-(2-benzylphenoxy)piperidin-1-yl)propanamido)-3-methylbutanamide] ({Propanoyl(3-Pip(4-O-2-BnPh))}-VAA[dF]-NH2)
1320	5.88 ± 0.21	C[C@H](NC(=O)[C@H](C)NC(=O)[C@H](Cc1ccccc1)NC(=O)CCN1CCC(Oc2ccccc2Cc2ccccc2)CC1)C(=O)N[C@H](Cc1ccccc1)C(N)=O [Compound 8d, (S)-N-((S)-1-(((S)-1-(((R)-1-Amino-1-oxo-3-phenylpropan-2-yl)amino)-1-oxopropan-2-yl)amino)-1-oxopropan-2-yl)-2-(3-(4-(2-benzylphenoxy)piperidin-1-yl)propanamido)-3-phenylpropanamide] ({Propanoyl(3-Pip(4-O-2-BnPh))}-FAA[dF]-NH2)
1180	5.93 ± 0.17	C[C@H](NC(=O)[C@H](C)NC(=O)[C@H](Cc1ccc(O)cc1)NC(=O)CCN1CCC(Oc2ccccc2Cc2ccccc2)CC1)C(=O)N[C@H](Cc1ccccc1)C(N)=O [Compound 8e, (S)-N-((S)-1-(((S)-1-(((R)-1-Amino-1-oxo-3-phenylpropan-2-yl)amino)-1-oxopropan-2-yl)amino)-1-oxopropan-2-yl)-2-(3-(4-(2-benzylphenoxy)piperidin-1-yl)propanamido)-3-(4-hydroxyphenyl)propanamide] ({Propanoyl(3-Pip(4-O-2-BnPh))}-YAA[dF]-NH2)
407	6.39 ± 0.15	C[C@H](NC(=O)[C@H](C)NC(=O)[C@H](CO)NC(=O)CCN1CCC(Oc2ccccc2Cc2ccccc2)CC1)C(=O)N[C@H](Cc1ccccc1)C(N)=O [Compound 8f, (S)-N-((S)-1-(((S)-1-(((R)-1-Amino-1-oxo-3-phenylpropan-2-yl)amino)-1-oxopropan-2-yl)amino)-1-oxopropan-2-yl)-2-(3-(4-(2-benzylphenoxy)piperidin-1-yl)propanamido)-3-hydroxypropanamide] ({Propanoyl(3-Pip(4-O-2-BnPh))}-SAA[dF]-NH2)
562	6.25 ± 0.20	C[C@H](NC(=O)[C@H](C)NC(=O)[C@H](CC(N)=O)NC(=O)CCN1CCC(Oc2ccccc2Cc2ccccc2)CC1)C(=O)N[C@H](Cc1ccccc1)C(N)=O [Compound 8g, (S)-N-((S)-1-(((S)-1-(((R)-1-Amino-1-oxo-3-phenylpropan-2-yl)amino)-1-oxopropan-2-yl)amino)-1-oxopropan-2-yl)-2-(3-(4-(2-benzylphenoxy)piperidin-1-yl)-propanamido)succinamide] ({Propanoyl(3-Pip(4-O-2-BnPh))}-NAA[dF]-NH2)
933	6.03 ± 0.13	C[C@H](NC(=O)[C@H](C)NC(=O)[C@H](Cc1cnc[nH]1)NC(=O)CCN1CCC(Oc2ccccc2Cc2ccccc2)CC1)C(=O)N[C@H](Cc1ccccc1)C(N)=O [Compound 8h, (S)-N-((S)-1-(((S)-1-(((R)-1-Amino-1-oxo-3-phenylpropan-2-yl)amino)-1-oxopropan-2-yl)amino)-1-oxopropan-2-yl)-2-(3-(4-(2-benzylphenoxy)piperidin-1-yl)propanamido)-3-(1H-imidazol-5-yl)propanamide] ({Propanoyl(3-Pip(4-O-2-BnPh))}-HAA[dF]-NH2)
1620	5.79 ± 0.18	C[C@H](NC(=O)[C@H](C)NC(=O)[C@H](CCCCN)NC(=O)CCN1CCC(Oc2ccccc2Cc2ccccc2)CC1)C(=O)N[C@H](Cc1ccccc1)C(N)=O [Compound 8i, (S)-6-Amino-N-((S)-1-(((S)-1-(((R)-1-amino-1-oxo-3-phenylpropan-2-yl)amino)-1-oxopropan-2-yl)-amino)-1-oxopropan-2-yl)-2-(3-(4-(2-benzylphenoxy)piperidin-1-yl)-propanamido)hexanamide] ({Propanoyl(3-Pip(4-O-2-BnPh))}-KAA[dF]-NH2)
1020	5.99 ± 0.24	C[C@H](NC(=O)[C@H](C)NC(=O)[C@H](CC(=O)O)NC(=O)CCN1CCC(Oc2ccccc2Cc2ccccc2)CC1)C(=O)N[C@H](Cc1ccccc1)C(N)=O [Compound 8j, (S)-4-(((S)-1-(((S)-1-(((R)-1-Amino-1-oxo-3-phenylpropan-2-yl)amino)-1-oxopropan-2-yl)amino)-1-oxopropan-2-yl)amino)-3-(3-(4-(2-benzylphenoxy)piperidin-1-yl)propanamido)-4-oxobutanoic Acid] ({Propanoyl(3-Pip(4-O-2-BnPh))}-DAA[dF]-NH2)
501	6.30 ± 0.07	CC(C)[C@H](NC(=O)CCN1CCC(Oc2ccccc2Cc2ccccc2)CC1)C(=O)NCC(=O)N[C@@H](C)C(=O)N[C@H](Cc1ccccc1)C(N)=O [Compound 9a, (S)-N-(2-(((S)-1-(((R)-1-Amino-1-oxo-3-phenylpropan-2-yl)amino)-1-oxopropan-2-yl)amino)-2-oxoethyl)-2-(3-(4-(2-benzylphenoxy)piperidin-1-yl)propanamido)-3-methylbutanamide] ({Propanoyl(3-Pip(4-O-2-BnPh))}-VGA[dF]-NH2)
372	6.43 ± 0.06	CC(C)[C@H](NC(=O)CCN1CCC(Oc2ccccc2Cc2ccccc2)CC1)C(=O)N[C@H](C(=O)N[C@@H](C)C(=O)N[C@H](Cc1ccccc1)C(N)=O)C(C)C [Compound 9b, (S)-N-((S)-1-(((R)-1-Amino-1-oxo-3-phenylpropan-2-yl)amino)-1-oxopropan-2-yl)-2-((S)-2-(3-(4-(2-benzylphenoxy)piperidin-1-yl)propanamido)-3-methylbutanamido)-3-methylbutanamide] ({Propanoyl(3-Pip(4-O-2-BnPh))}-VVA[dF]-NH2)
794	6.10 ± 0.20	CC(C)[C@H](NC(=O)CCN1CCC(Oc2ccccc2Cc2ccccc2)CC1)C(=O)N[C@@H](Cc1ccccc1)C(=O)N[C@@H](C)C(=O)N[C@H](Cc1ccccc1)C(N)=O [Compound 9c, (S)-N-((S)-1-(((S)-1-(((R)-1-Amino-1-oxo-3-phenylpropan-2-yl)amino)-1-oxopropan-2-yl)amino)-1-oxo-3-phenylpropan-2-yl)-2-(3-(4-(2-benzylphenoxy)piperidin-1-yl)-propanamido)-3-methylbutanamide] ({Propanoyl(3-Pip(4-O-2-BnPh))}-VFA[dF]-NH2)
437	6.36 ± 0.04	CC(C)[C@H](NC(=O)CCN1CCC(Oc2ccccc2Cc2ccccc2)CC1)C(=O)N[C@@H](Cc1ccc(O)cc1)C(=O)N[C@@H](C)C(=O)N[C@H](Cc1ccccc1)C(N)=O [Compound 9d, (S)-N-((S)-1-(((S)-1-(((R)-1-Amino-1-oxo-3-phenylpropan-2-yl)amino)-1-oxopropan-2-yl)amino)-3-(4-hydroxyphenyl)-1-oxopropan-2-yl)-2-(3-(4-(2-benzylphenoxy)-piperidin-1-yl)propanamido)-3-methylbutanamide] ({Propanoyl(3-Pip(4-O-2-BnPh))}-VYA[dF]-NH2)
151	6.82 ± 0.06	CC(C)[C@H](NC(=O)CCN1CCC(Oc2ccccc2Cc2ccccc2)CC1)C(=O)N[C@@H](CO)C(=O)N[C@@H](C)C(=O)N[C@H](Cc1ccccc1)C(N)=O [Compound 9e, (S)-N-((S)-1-(((S)-1-(((R)-1-Amino-1-oxo-3-phenylpropan-2-yl)amino)-1-oxopropan-2-yl)amino)-3-hydroxy-1-oxo-propan-2-yl)-2-(3-(4-(2-benzylphenoxy)piperidin-1-yl)-propanamido)-3-methylbutanamide] ({Propanoyl(3-Pip(4-O-2-BnPh))}-VSA[dF]-NH2)
832	6.08 ± 0.03	CC(C)[C@H](NC(=O)CCN1CCC(Oc2ccccc2Cc2ccccc2)CC1)C(=O)N[C@@H](CC(N)=O)C(=O)N[C@@H](C)C(=O)N[C@H](Cc1ccccc1)C(N)=O [Compound 9f, (S)-N1-((S)-1-(((R)-1-Amino-1-oxo-3-phenylpropan-2-yl)amino)-1-oxopropan-2-yl)-2-((S)-2-(3-(4-(2-benzylphenoxy)piperidin-1-yl)propanamido)-3-methylbutanamido)succinamide] ({Propanoyl(3-Pip(4-O-2-BnPh))}-VNA[dF]-NH2)
692	6.16 ± 0.06	CC(C)[C@H](NC(=O)CCN1CCC(Oc2ccccc2Cc2ccccc2)CC1)C(=O)N[C@@H](Cc1cnc[nH]1)C(=O)N[C@@H](C)C(=O)N[C@H](Cc1ccccc1)C(N)=O [Compound 9g, (S)-N-((S)-1-(((S)-1-(((R)-1-Amino-1-oxo-3-phenylpropan-2-yl)amino)-1-oxopropan-2-yl)amino)-3-(1H-imidazol-5-yl)-1-oxopropan-2-yl)-2-(3-(4-(2-benzylphenoxy)piperidin-1-yl)propanamido)-3-methylbutanamide] ({Propanoyl(3-Pip(4-O-2-BnPh))}-VHA[dF]-NH2)
